# Values of other authors as cited in patent US6736837B2, “Method for inducing hypothermia for treating neurological disorders” (priority 1997, dated 2004).
# Where two headings read alike, the source gives them in different places.
# System: tumors
# Conditions: for effect on tumor size: same dose
compound,measurement,setting,value
"O=c1[nH]cc(F)c(=O)[nH]1 [5-FU, 5-fluoruracil]",effect on tumors,"hamsters, 50 mg/kg, during hypothermia with the tumors maintained at normal body temperature",regression and disappearance of tumors
same,effect on tumor size,hypothermic animals whose tumors were also hypothermic,did not affect tumor size
same,effect on tumor size,tumor-bearing animals that were not made hypothermic,did not affect tumor size
